From patent publication US9877981B2, “NAD biosynthesis and precursors for the treatment and prevention of cancer and proliferation” (President and Fellows of Harvard College, priority 2012, dated 2018)

What was measured:
NAD+ = NAD+ levels in skeletal muscle of mice treated with NMN; type: in vivo, C57BL/6J mice; conditions: young and old
Procedure: (§1) C57BL/6J mice of 3, 6, 22, 24, or 30 months of age were obtained from the National Institutes of Aging mouse aging colony. Mice were acclimated for at least one-week prior to sacrifice. 3, and 24-month-old mice were given interperitoneal (IP) injections of 500 mg NMN/kg body weight per day or the equivalent volume of PBS for 7 consecutive days at 5:00 pm and 7:00 am on day 8 and sacrificed 4 hr after last injection. All animal studies followed the guidelines of and were approved by the Harvard Institutional Animal Care and Use Committee
NAD^+ from C2C12 cells and skeletal muscle was quantified with a commercially available kit (BioVision) according to the manufacturer's instructions and as described before (Gomes et al., Biochim. Biophys. Acta. 1822:185-195 (2012)).
C57BL/6J mice of 6, 22, or 30 months of age were obtained from the National Institutes of Aging mouse aging colony. Additionally 22 months old caloric restricted mice were also obtained from the National Institutes of Aging mouse aging colony. EGLN1 KO, SIRT1 KO and SIRT1 OE mice were generated as previously described (Minamishima et al., 2008; Price et al., 2012). Mice were acclimated for at least one-week prior to sacrifice. […]
NAD^+ from skeletal muscle was quantified with a commercially available kit (BioVision) according to the manufacturer's instructions and as described before (Gomes et al., 2012). […]

[1] = tested on: HIF-1α target genes (PGK-1, Glut1, PDK1 and Vegfa); experiment: qPCR of HIF-1α target genes in gastrocnemius of treated mice; type: in vivo; conditions: 3- and 24-month-old mice, NMN 500 mg/kg IP one week
Procedure: as §1
(§2) RNA from skeletal muscle tissue and C2C12 cells were extracted with RNeasy mini kit (Qiagen) according to the instructions and quantified using the NanoDrop 1000 spectrophotometer (Thermo Scientific). cDNA was synthesized with the iSCRIP cDNA synthesis kit (BioRad) using 600 ng of RNA. Quantitative RT-PCR reactions were performed using 1 μM of primers and LightCycler® 480 SYBR Green Master (Roche) on an LightCycler® 480 detection system (Roche). Calculations were performed by a comparative method (2-ΔCT) using 18S as an internal control. […]
RNA from skeletal muscle and aorta were extracted with RNeasy mini kit (Qiagen) according to the instructions and quantified using the NanoDrop 1000 spectrophotometer (Thermo Scientific). cDNA was synthesized with the iSCRIP cDNA synthesis kit (BioRad) using 600 ng of RNA. […]

[2] = tested on: inflammatory markers (TNF-α, IL-6 and IL-18); experiment: qPCR of inflammatory markers in gastrocnemius of treated mice; type: in vivo; conditions: old (22-month) mice; NMN one week; skeletal muscle
Excerpt: (§3) C57BL/6J mice of 6, 22, or 30 months of age were obtained from the National Institutes of Aging mouse aging colony. Additionally 22 months old caloric restricted mice were also obtained from the National Institutes of Aging mouse aging colony. EGLN1 KO, SIRT1 KO and SIRT1 OE mice were generated as previously described (Minamishima et al., 2008; Price et al., 2012). Mice were acclimated for at least one-week prior to sacrifice. 3, 6, 22 and 24-month-old mice were given interperitoneal (IP) injections of 500 mg NMN/kg body weight per day or the equivalent volume of PBS for 7 consecutive days at 5:00 pm and 7:00 am on day 8 and sacrificed 4 hr after last injection.
as §2

[3] = tested on: AKT and IRS-1 phosphorylation; experiment: Insulin signaling immunoblot (p-AKT, p-IRS-1) in muscle of treated mice; type: in vivo; conditions: old mice treated with NMN; soleus
Excerpt: as §3
Protein extracts from tissue or C2C12 cells were obtained by lysis in ice-cold lysis buffer (150 mM NaCl, 10 mM Tris HCl (pH 7.4), 1 mM EDTA, 1 mM EGTA, 1% Triton X-100, 0.5% NP-40) supplemented with a cocktail of protease and phosphatase inhibitors (Roche). Protein content was determined by the Bradford protein assay (Biorad), and 50 μg proteins were run on SDS-PAGE under reducing conditions. The separated proteins were then electrophoretically transferred to a polyvinylidene difluoride membrane (Perkin-Elmer). […] The immunostaining was detected using horseradish peroxidase-conjugated anti-rabbit or anti-mouse immunoglobulin for 1 h at room temperature.

primary myoblasts = experiment: qPCR of mitochondrial-encoded genes in primary myoblasts infected with NMNAT1 or nontargeting shRNA; type: cell-based, mouse; conditions: primary myoblasts with knockdown of NMNAT1
C2C12 myoblasts = experiment: mtDNA content and ETC gene expression in C2C12 myoblasts; type: cell-based, mouse; conditions: C2C12 myoblasts treated with DMOG, 16 h
Procedure: C2C12 cell line (ATCC) was cultured in low glucose Dulbecco's modified eagle medium (DMEM) (Invitrogen) supplemented with 10% FBS (Invitrogen) and a mix of antibiotic and antimycotic (Invitrogen). To inhibit SIRT1, cells were treated the vehicle (0.001% DMSO) or 10 μM EX-527 (Tocris) for 12 h. C2C12 myoblasts were infected with an empty or SIRT1 adenovirus as described before (Gerhart-Hines et al., 2007) and the media was replaced with fresh DMEM for additional 48 h, after that the cells were treated as described before. To test the effects of hypoxia and HIFα stabilization in genome asyncrony, C2C12 myoblasts were exposed to 1% oxygen for 16 h or treated with the vehicle (0.001% DMSO) or DMOG (Cayman) for the same period of time.
RNA from skeletal muscle tissue and C2C12 cells were extracted with RNeasy mini kit (Qiagen) according to the instructions and quantified using the NanoDrop 1000 spectrophotometer (Thermo Scientific). cDNA was synthesized with the iSCRIP cDNA synthesis kit (BioRad) using 600 ng of RNA. Quantitative RT-PCR reactions were performed using 1 μM of primers and LightCycler® 480 SYBR Green Master (Roche) on an LightCycler® 480 detection system (Roche). Calculations were performed by a comparative method (2-ΔCT) using 18S as an internal control. For mtDNA analysis, total DNA was extracted with DNeasy blood and tissue kit (Qiagen). mtDNA was amplified using primers specific for the mitochondrial cytochrome c oxidase subunit 2 (COX2) gene and normalized to genomic DNA by amplification of the ribosomal protein s18 (rps18) nuclear gene. Primers were designed using the IDT software (IDT) and the primer sequences can be found in Table 1.

TFAM promoter = TFAM promoter activity by luciferase assay in primary WT myoblasts; type: cell-based, mouse; conditions: DMOG vs DMSO
Procedure: TFAM promoter, VHL promoter, HRE and c-Myc activity were determined using a luciferase-based system. Luciferase activity was measured using the Dual-Luciferase Reporter Assay System (Promega) with Renilla as the reference.
TFAM promoter activity was evaluated using a TFAM promotes-luc plasmid. A fragment of the mouse Tfam promoter (1.4 kb upstream of the coding sequence) was cloned into a pGL4.15 vector (Promega). Luciferase activity was measured using the Dual-Luciferase Reporter Assay System (Promega) with Renilla as the reference 48 h after transfection.

SMILES | levels of cellular NAD+ (NAD+; 3- and 24-month-old C57BL/6J mice, NMN 500 mg/kg IP for one week, skeletal muscle) | levels of cellular NAD+ (NAD+; 6- and 22-month-old C57BL/6J mice, NMN for one week) | expression of HIF-1α target genes [1] | expression of inflammation markers [2] | age-induced insulin resistance in the skeletal muscle [3] | phosphorylation of AKT and IRS-1 [3] | ability of NMN to induce expression of mitochondrial-encoded genes (primary myoblasts) | expression of mitochondrially-encoded ETC genes (C2C12 myoblasts) | expression of nuclear-encoded ETC components (C2C12 myoblasts) | mtDNA content (C2C12 myoblasts) | full length TFAM promoter activity (TFAM promoter) | TFAM promoter activity with c-Myc consensus sequence mutation (TFAM promoter; c-Myc binding site absent)
NC(=O)c1ccc[n+]([C@@H]2O[C@H](COP(=O)([O-])O)[C@@H](O)[C@H]2O)c1 [NMN, nicotinamide mononucleotide] | approximately 2 fold | 2 fold | suppressed the expression of HIF-1α target genes | completely reversed these markers | reverse age-induced insulin resistance | increasing the phosphorylation | completely abolishes the ability of NMN to induce the expression of mitochondrial-encoded genes |  |  |  |  | 
COC(=O)CNC(=O)C(=O)OC [DMOG, dimethyloxaloylglycine] |  |  |  |  |  |  |  | specific decline | not the nuclear-encoded components | specific decline in mtDNA content | reduces the full length TFAM promoter activity | does not have an additive effect
